Holding throughout (assay type): cell-based
One assay deals with COS-1 cells. The assay is described as follows: Transfection efficiency in COS-1 cells with a beta-galactosidase encoding plasmid. As to conditions: for Beta-galactosidase activity 0.2 μg DNA/well / Beta-galactosidase activity 1 μg DNA/well: formulated as in example 1 (DOPE liposomes added to compound/DNA), 48 h after transfection. As for the experimental part:
Dioleoyl phosphatidylethanolamine (DOPE, Avanti Polar Lipids Inc.) liposomes were prepared by drying under vacuum the lipid in solution in chloroform and then rehydrating the lipid film with 30 mM Tris Cl pH 8.5. Final lipid concentration was 2 mM. The lipid dispersion was subsequently sonicated for 10-15 min in a sonicator bath (Elgasonic, 50 kHz).
(§1) Twenty μg of plasmid DNA were diluted with 260 μl of distilled, sterile water in a polystyrene sterile tube. […] 140 μl of DOPE liposomes were then slowly added, drop by drop, to obtain a molar ratio between DOPE and Nγ-palmitoyl-D-(α,γ-diaminobutyryl)-L-(α,γ-diaminobutyric acid) hydrazide of 5:1. The complex was carefully mixed. The preparation was allowed to stand at room temperature during about 5 min and was then added to COS-1 cells grown in 96-well plates.
as §1, with “Mixed micelles of DOPE (2 μmoles) and dicaproyl phosphatidylcholine (15 μmotes) were prepared by drying the lipids under vacuum and then rehydrating the lipid film with 1 ml of 30 mM TrisCl buffer pH 8.5. Twenty” for “Twenty”, “pCH110” for “DNA”, “distilled” for “distilled, sterile”, “DOPE/dicyproyl PC mixed micelles” for “DOPE liposomes”, “added” for “added, drop by drop,”
The mixture was added to 20 μg of plasmid DNA in 260 μl of distilled water, so that the +/- charge ratio between Nγ-palmitoyl-D-(α,γ-diaminobutyryl)-L-(α,γ-diaminobutyric acid) hydrazide and plasmid DNA was 2:1. The complex was carefully mixed. The preparation was allowed to stand at room temperature during about 5 min and was then added to COS-1 cells grown in 96-well plates.

Another assay deals with CHO K1. Put plainly: Transfection efficiency with a luciferase encoding vector, CHO K1 cell-line. As for the experimental part:
(§2) A transfecting complex with Nγ-palmitoyl-D-(α,γ-diaminobutyryl)-L-(α,γ-diaminobutyric acid) hydrazide (compound A) was prepared as described in example 1. Lipofectamine™ complex was prepared following manufacturer's instructions. The transfection efficiency of both systems was compared in various cell-lines using a luciferase encoding vector.
(§3) Cells were transfected with a luciferase encoding plasmid and luciferase activity was measured 48 h after transfection. Results are expressed as relative light units.

The test system of another assay is LM tk-. The assay is described as follows: Transfection efficiency with a luciferase encoding vector, LM tk- cell-line. As for the experimental part:
as §2, §3

For a further assay, the system named is 293-EBNA. The assay is described as follows: Transfection efficiency with a luciferase encoding vector, 293-EBNA cell-line. As for the experimental part: as §2, §3
The test system of the next assay is HeLa. Put plainly: Transfection efficiency with a luciferase encoding vector, HeLa cell-line. As to the method:
as §2, §3

Square brackets hold non-standard residues; d marks the D form. Peptide text beside a SMILES is read from it. * marks the point of attachment. Palmitoyl = CCCCCCCCCCCCCCCC(=O)*; dDab = NCC[C@@H](N)C(=O)O; Orn = NCCC[C@H](N)C(=O)O; dDap = NC[C@@H](N)C(=O)O; Dab = NCC[C@H](N)C(=O)O; Dap = NC[C@H](N)C(=O)O; NHNH2 = NN*

Turning to “N^ε palmitoyl-L lysyl-L lysyl-L lysine methyl ester”, in the assay with COS-1 cells, the “Beta-galactosidase activity 0.2 μg DNA/well” value is reported as 0 μunits of beta-galactosidase p and the “Beta-galactosidase activity 1 μg DNA/well” value was 1426 μunits of beta-galactosidase p.

Consider `CCCCCCCCCCCCCCCC(=O)NCC[C@@H](N)C(=O)N[C@@H](CCN)C(=O)NN` [cpd A, Nγ-palmitoyl-D-(α,γ-diaminobutyryl)-L-(α,γ-diaminobutyric acid) hydrazide] (H-[dDab](Palmitoyl)-[Dab]-NHNH2), for which the “enhancement cpd A over Lipofectamine” value in the assay with CHO K1 was 33; in the assay on LM tk- it was 12; in the assay with 293-EBNA it was 5; with HeLa it was 4. Also, the “transfection efficiency expressed as beta-galactosidase activity” value with COS-1 cells (Example 2: DOPE/dicaproyl phosphatidylcholine mixed micelles, plasmid pCH110, 0.2 μg of DNA per well) is 7280 μUnits per well; with COS-1 cells (Example 2: DOPE/dicaproyl phosphatidylcholine mixed micelles, plasmid pCH110, 1 μg of DNA per well) it was 6375 μUnits per well; in the assay with COS-1 cells (Example 3: compound premixed with DOPE liposomes, then added to DNA, 0.2 μg of DNA per well), 4205 μUnits per well; in the assay with COS-1 cells (Example 3: compound premixed with DOPE liposomes, then added to DNA, 1 μg of DNA per well), 7880 μUnits per well. Further, the “Beta-galactosidase activity 0.2 μg DNA/well” value in the assay with COS-1 cells is 5772 μunits of beta-galactosidase p. Also, in the assay with COS-1 cells, the “Beta-galactosidase activity 1 μg DNA/well” value is 9942 μunits of beta-galactosidase p.

On to “N^γ γ palmitoyl-D (α,ε-diaminopropionyl)-L (α,ε-diaminopropionic acid) hydrazide”, for which, in the assay with COS-1 cells, the “Beta-galactosidase activity 0.2 μg DNA/well” value is on record as 0 μunits of beta-galactosidase p and the “Beta-galactosidase activity 1 μg DNA/well” value was 3671 μunits of beta-galactosidase p.

Consider `CCCCCCCCCCCCCCCC(=O)N[C@@H](CCCCN)C(=O)N[C@@H](CCCCN)C(=O)NCc1ccccc1` [N^α palmitoyl-L lysyl-L lysine benzylamide], for which, in the assay with COS-1 cells, the “Beta-galactosidase activity 0.2 μg DNA/well” value is on record as 510 μunits of beta-galactosidase p and the “Beta-galactosidase activity 1 μg DNA/well” value was 845 μunits of beta-galactosidase p.

With `CCCCCCCCCCCCCCCC(=O)N[C@@H](CCCNC(=N)N)C(=O)N[C@@H](CCCN)C(=O)OC` [N^α palmitoyl-L arginyl-L ornithine methyl ester] (Palmitoyl-Arg-[Orn]-OMe), in the assay with COS-1 cells, the “Beta-galactosidase activity 0.2 μg DNA/well” value was 0 μunits of beta-galactosidase p and the “Beta-galactosidase activity 1 μg DNA/well” value is 870 μunits of beta-galactosidase p.

Regarding “N^α palmitoyl-L (α,γ-diaminobutyryl)-L lysine methyl ester”, the “Beta-galactosidase activity 1 μg DNA/well” value in the assay on COS-1 cells was 791 μunits of beta-galactosidase p.

As to “N^ε palmitoyl-L lysyl-L lysine methyl ester”, in the assay with COS-1 cells, the “Beta-galactosidase activity 0.2 μg DNA/well” value was 0 μunits of beta-galactosidase p and the “Beta-galactosidase activity 1 μg DNA/well” value is reported as 100 μunits of beta-galactosidase p.

As to `CCCCCCCCCCCCCCCC(=O)N[C@@H](CCCN)C(=O)N[C@@H](CCCN)C(=O)OC` [N^α palmitoyl-L ornithyl-L ornithine methyl ester], in the assay on COS-1 cells, the “Beta-galactosidase activity 0.2 μg DNA/well” value is reported as 44 μunits of beta-galactosidase p and the “Beta-galactosidase activity 1 μg DNA/well” value is listed as 789 μunits of beta-galactosidase p.

Turning to N^α oleoyl-L lysyl-L lysine ethyl ester, in the assay on COS-1 cells, the “Beta-galactosidase activity 0.2 μg DNA/well” value is on record as 0 μunits of beta-galactosidase p and the “Beta-galactosidase activity 1 μg DNA/well” value is 1333 μunits of beta-galactosidase p.

Consider `CCCCCCCCCCCCCCCC(=O)NCC[C@H](N)C(=O)N[C@H](CCN)C(=O)N[C@H](CCN)C(=O)N[C@@H](CCN)C(=O)NN` [N^γ palmitoyl-L (α,γ-diaminobutyryl)-D (α,γ-diaminobutyryl)-D (α,γ-diaminobutyryl)-L (α,γ-diaminobutyric acid) hyrazide] (H-[Dab](Palmitoyl)[dDab][dDab][Dab]-NHNH2), for which, in the assay on COS-1 cells, the “Beta-galactosidase activity 0.2 μg DNA/well” value is reported as 497 μunits of beta-galactosidase p and the “Beta-galactosidase activity 1 μg DNA/well” value is 542 μunits of beta-galactosidase p.

Turning to `CCCCCCCCCCCCCCCC(=O)NCC[C@H](N)C(=O)N[C@@H](CCN)C(=O)N[C@@H](CCN)C(=O)N[C@@H](CCN)C(=O)NN` [N^γ palmitoyl-L (α,γ-diaminobutyryl)-L (α,γ-diaminobutyryl)-L (α,γ-diaminobutyryl)-L (α,γ-diaminobutyric acid) hydrazide] (H-[Dab](Palmitoyl)[Dab][Dab][Dab]-NHNH2), in the assay with COS-1 cells, the “Beta-galactosidase activity 0.2 μg DNA/well” value is 1800 μunits of beta-galactosidase p and the “Beta-galactosidase activity 1 μg DNA/well” value was 7835 μunits of beta-galactosidase p.

As to “N^α palmitoyl-L lysyl-L lysine methyl ester”, in the assay on COS-1 cells, the “Beta-galactosidase activity 0.2 μg DNA/well” value is given as 0 μunits of beta-galactosidase p and the “Beta-galactosidase activity 1 μg DNA/well” value was 150 μunits of beta-galactosidase p.

With `CCCCCCCCCCCCCCCC(=O)N[C@@H](CCCNC(=N)N)C(=O)N[C@@H](CCCNC(=N)N)C(=O)OCC` [N^α palmitoyl-L arginyl-L arginine ethyl ester] (Palmitoyl-Arg-Arg-OEt), in the assay on COS-1 cells, the “Beta-galactosidase activity 0.2 μg DNA/well” value was 0 μunits of beta-galactosidase p and the “Beta-galactosidase activity 1 μg DNA/well” value is recorded as 382 μunits of beta-galactosidase p.

As for `CCCCCCCCCCCCCCCC(=O)N[C@@H](CCN)C(=O)N[C@@H](CCN)C(=O)NN` [N^α palmitoyl-L (α,γ-diaminobutyryl)-L (α,γ-diaminobutyric acid) hydrazide] (Palmitoyl-[Dab]-[Dab]-NHNH2), in the assay with COS-1 cells, the “Beta-galactosidase activity 0.2 μg DNA/well” value was 2742 μunits of beta-galactosidase p and the “Beta-galactosidase activity 1 μg DNA/well” value was 3519 μunits of beta-galactosidase p.

In the case of `CCCCCCCCCCCCCCCC(=O)N[C@@H](CCCCN)C(=O)N[C@@H](CO)C(=O)OC` [N^α palmitoyl-L lysyl-L serine methyl ester], in the assay on COS-1 cells, the “Beta-galactosidase activity 0.2 μg DNA/well” value is 0 μunits of beta-galactosidase p and the “Beta-galactosidase activity 1 μg DNA/well” value was 219 μunits of beta-galactosidase p.

“N^α methyl arachidoyl-L lysyl-L lysine methyl ester”: in the assay with COS-1 cells, the “Beta-galactosidase activity 0.2 μg DNA/well” value is reported as 0 μunits of beta-galactosidase p and the “Beta-galactosidase activity 1 μg DNA/well” value is 148 μunits of beta-galactosidase p.

For `CCCCCCCCCCCCCCCC(=O)N[C@@H](CCCCN)C(=O)N[C@@H](CCCCN)C(=O)N[C@@H](CCCCN)C(=O)NN` [N^α palmitoyl-L lysyl-L lysyl-L lysine hydrazide], in the assay with COS-1 cells, the “Beta-galactosidase activity 0.2 μg DNA/well” value is 136 μunits of beta-galactosidase p and the “Beta-galactosidase activity 1 μg DNA/well” value is on record as 2232 μunits of beta-galactosidase p.

For the compound `CCCCCCCCCCCCCCCC(=O)NC[C@@H](N)C(=O)N[C@@H](CN)C(=O)OCC` [N^γ palmitoyl-D (α,ε-diaminopropionyl)-L (α,ε-diaminopropionic acid) ethyl ester] (H-[dDap](Palmitoyl)-[Dap]-OEt), in the assay with COS-1 cells, the “Beta-galactosidase activity 0.2 μg DNA/well” value is reported as 359 μunits of beta-galactosidase p and the “Beta-galactosidase activity 1 μg DNA/well” value is given as 0 μunits of beta-galactosidase p.

Turning to `CCCCCCCCCCCCCCCC(=O)NCC[C@@H](N)C(=O)N[C@H](CCN)C(=O)N[C@@H](CCN)C(=O)NN` [N^γ palmitoyl-D (α,γ-diaminobutyryl)-D (α,γ-diaminobutyryl)-L (α,γ-diaminobutyric acid) hydrazide] (H-[dDab](Palmitoyl)-[dDab]-[Dab]-NHNH2), in the assay with COS-1 cells, the “Beta-galactosidase activity 0.2 μg DNA/well” value was 1847 μunits of beta-galactosidase p and the “Beta-galactosidase activity 1 μg DNA/well” value is reported as 7768 μunits of beta-galactosidase p.

Regarding `CCCCCCCCCCCCCCCC(=O)N[C@@H](CCCCN)C(=O)N[C@@H](CCCCN)C(=O)O` [N^α palmitoyl-L lysyl-L lysine], in the assay on COS-1 cells, the “Beta-galactosidase activity 0.2 μg DNA/well” value is given as 0 μunits of beta-galactosidase p and the “Beta-galactosidase activity 1 μg DNA/well” value is 530 μunits of beta-galactosidase p.

With `CCCCCCCCCCCCCCCC(=O)N[C@@H](CCN)C(=O)NN` [N^α palmitoyl-L (α,γ-diaminobutyric acid) hydrazide], in the assay with COS-1 cells, the “Beta-galactosidase activity 1 μg DNA/well” value is given as 1411 μunits of beta-galactosidase p.

With “N^α palmitoyl-L lysyl-L lysine ethyl ester”, in the assay on COS-1 cells, the “Beta-galactosidase activity 0.2 μg DNA/well” value is given as 138 μunits of beta-galactosidase p and the “Beta-galactosidase activity 1 μg DNA/well” value was 424 μunits of beta-galactosidase p.

For the origin of these results see patent publication US5759827A, “Acylated oligopeptides for transfecting cells” (Hoffmann-La Roche Inc., priority 1995, dated 1998).
